Assay: storage stability of the amorphous form (material remains amorphous)
Format: physicochemical
Settings: five days at 0-5° C., packaged in a polyethylene bag

physical form on storage: remains amorphous
SMILES: Nc1cccc2c1CN(C1CCC(=O)NC1=O)C2=O (stereo not shown) [Example 8, 3-(4-amino-1-oxo-1,3-dihydro-2H-isoindol-2-yl)piperidine-2,6-dione]
